In patent US9873696B2, “Neprilysin inhibitors” (THERAVANCE BIOPHARMA R&D IP, LLC, priority 2010, dated 2018):

Molecular target: T1, human NEP (Homo sapiens, UniProt P08473)
T1 construct: purchased R&D Systems, Minneapolis, Minn; 1182-ZN
Assay: In vitro enzyme inhibition assay at human NEP (Assay 1)
Format: biochemical
Settings: recombinant enzyme, fluorogenic peptide substrate, 37° C.
Summary of the method: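 Recombinant enzyme preincubated with compound 30 min at 37 °C, then 10 μM Mca-D-Arg-Arg-Leu-Dap-(Dnp)-OH added in 50 mM HEPES pH 7.5, 100 mM NaCl, 0.01% Tween-20, 10 μM ZnSO4; stopped after 20 min with acetic acid. Fluorescence read at 320/405 nm; Ki from nonlinear fit of v=v0/[1+(I/K′)], reported as pKi.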

T1 sequence (P08473 whole entry): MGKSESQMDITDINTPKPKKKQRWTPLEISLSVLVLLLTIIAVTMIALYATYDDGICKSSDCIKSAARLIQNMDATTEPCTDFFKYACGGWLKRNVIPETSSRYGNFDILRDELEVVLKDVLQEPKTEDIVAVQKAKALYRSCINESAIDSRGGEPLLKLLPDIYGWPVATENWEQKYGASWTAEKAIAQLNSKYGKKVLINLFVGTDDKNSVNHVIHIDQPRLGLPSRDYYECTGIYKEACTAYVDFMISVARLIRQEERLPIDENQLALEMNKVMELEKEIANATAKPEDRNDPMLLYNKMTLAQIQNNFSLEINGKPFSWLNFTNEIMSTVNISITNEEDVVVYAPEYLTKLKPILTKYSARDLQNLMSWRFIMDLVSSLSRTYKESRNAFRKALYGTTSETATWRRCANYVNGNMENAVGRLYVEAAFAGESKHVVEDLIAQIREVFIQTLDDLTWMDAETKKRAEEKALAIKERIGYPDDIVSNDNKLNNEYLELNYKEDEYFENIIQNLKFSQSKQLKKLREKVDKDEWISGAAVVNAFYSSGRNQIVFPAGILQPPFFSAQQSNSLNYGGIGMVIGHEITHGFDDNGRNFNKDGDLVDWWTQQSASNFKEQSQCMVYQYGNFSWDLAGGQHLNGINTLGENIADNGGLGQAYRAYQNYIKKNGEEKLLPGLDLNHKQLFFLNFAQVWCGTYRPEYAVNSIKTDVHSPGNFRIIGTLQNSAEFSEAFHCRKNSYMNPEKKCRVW

Row | SMILES | Ki [nM]
1 | O=C(NN(Cc1ccc(-c2cccc(C(F)(F)F)c2)cc1)C[C@@H](O)C(=O)O)c1cc(O)no1 [Example 5-2, (R)-2-Hydroxy-3-[N′-(3-hydroxy-isoxazole-5-carbonyl)-N-(3′-trifluoromethyl-biphenyl-4-ylmethyl)-hydrazino]-propionic acid] | 12.6 to 100
2 | O=C(NN(Cc1ccc(-c2cccc(O)c2)cc1)C[C@H](O)C(=O)O)c1cc(O)no1 [Example 5-3, (S)-2-Hydroxy-3-[N-(3′-hydroxy-biphenyl-4-ylmethyl)-N′-(3-hydroxy-isoxazole-5-carbonyl)-hydrazino]-propionic acid] | 1.26 to 10
3 | Cc1cccc(-c2ccc(CN(C[C@H](O)C(=O)O)NC(=O)c3cc(O)no3)cc2)c1 [Example 5-4, (S)-2-Hydroxy-3-[N′-(3-hydroxy-isoxazole-5-carbonyl)-N-(3′-methyl-biphenyl-4-ylmethyl)-hydrazino]-propionic acid] | ≤ 1
4 | COc1ccccc1-c1ccc(CN(C[C@@H](O)C(=O)O)NC(=O)c2cc(O)no2)cc1 [Example 5-5, (R)-2-Hydroxy-3-[N′-(3-hydroxy-isoxazole-5-carbonyl)-N-(2′-methoxy-biphenyl-4-ylmethyl)-hydrazino]-propionic acid] | 1.26 to 10
5 | O=C(NN(Cc1ccc(-c2ccccc2O)cc1)C[C@@H](O)C(=O)O)c1cc(O)no1 [Example 5-6, (R)-2-Hydroxy-3-[N-(2′-hydroxy-biphenyl-4-ylmethyl)-N′-(3-hydroxy-isoxazole-5-carbonyl)-hydrazino]-propionic acid] | 1.26 to 10
6 | O=C(NN(Cc1ccc(-c2ccccc2Cl)cc1)C[C@@H](O)C(=O)O)c1cc(O)no1 [Example 5-7, (R)-3-[N-(2′-Chloro-biphenyl-4-ylmethyl)-N′-(3-hydroxy-isoxazole-5-carbonyl)-hydrazino]-2-hydroxy-propionic acid] | 1.26 to 10
7 | O=C(NN(Cc1ccc(-c2ccccc2F)cc1)C[C@@H](O)C(=O)O)c1cc(O)no1 [Example 5-8, (R)-3-[N-(2′-Fluoro-biphenyl-4-ylmethyl)-N′-(3-hydroxy-isoxazole-5-carbonyl)-hydrazino]-2-hydroxy-propionic acid] | 1.26 to 10
8 | COc1ccccc1-c1ccc(CN(C[C@H](O)C(=O)O)NC(=O)c2cc(C(C)=O)n[nH]2)cc1 [Example 5-9, (S)-3-[N′-(5-Acetyl-2H-pyrazole-3-carbonyl)-N-(2′-methoxy-biphenyl-4-ylmethyl)-hydrazino]-2-hydroxy-propionic acid] | 1.26 to 10
9 | COc1ccccc1-c1ccc(CN(C[C@@H](O)C(=O)O)NC(=O)c2nnn[nH]2)cc1 [Example 5-10, (R)-2-Hydroxy-3-[N-(2′-methoxy-biphenyl-4-ylmethyl)-N′-(1H-tetrazole-5-carbonyl)-hydrazino]-propionic acid] | 1.26 to 10

More lines, now with the values ahead:

Row | Ki [nM] | SMILES
10 | ≤ 1 | O=C(NN(Cc1ccc(-c2cc(Cl)ccc2F)cc1)C[C@@H](O)C(=O)O)c1nnn[nH]1 [Example 6A, (R)-3-[N-(5′-Chloro-2′-fluorobiphenyl-4-ylmethyl)-N′-(1H-tetrazole-5-carbonyl)-hydrazino]-2-hydroxypropionic Acid]
11 | ≤ 1 | O=C(NN(Cc1ccc(-c2cc(Cl)ccc2Cl)cc1)C[C@@H](O)C(=O)O)c1cn(O)nn1 [Example 7A, (R)-3-[N-(2′,5′-Dichlorobiphenyl-4-ylmethyl)-N′-(1-hydroxy-H-[1,2,3]triazole-4-carbonyl)-hydrazino]-2-hydroxypropionic Acid]
12 | ≤ 1 | Cc1ccc(Cl)cc1-c1ccc(CN(C[C@@H](O)C(=O)O)NC(=O)c2cc(O)no2)cc1 [Example 8-1, (R)-3-[N-(5′-Chloro-2′-methyl-biphenyl-4-ylmethyl)-N′-(3-hydroxy-isoxazole-5-carbonyl)-hydrazino]-2-hydroxy-propionic acid]
13 | ≤ 1 | COc1ccc(Cl)cc1-c1ccc(CN(C[C@@H](O)C(=O)O)NC(=O)c2cc(O)no2)cc1 [Example 8-2, (R)-3-[N-(5′-Chloro-2′-methoxy-biphenyl-4-ylmethyl)-N′-(3-hydroxy-isoxazole-5-carbonyl)-hydrazino]-2-hydroxy-propionic acid]
14 | 1.26 to 10 | COc1ccc(F)cc1-c1ccc(CN(C[C@@H](O)C(=O)O)NC(=O)c2cc(O)no2)cc1 [Example 8-4, (R)-3-[N-(5′-Fluoro-2′-methoxy-biphenyl-4-ylmethyl)-N′-(3-hydroxy-isoxazole-5-carbonyl)-hydrazino]-2-hydroxy-propionic acid]
15 | 1.26 to 10 | O=C(NN(Cc1ccc(-c2cc(F)ccc2O)cc1)C[C@H](O)C(=O)O)c1cc(O)no1 [Example 8-5, (S)-3-[N-(5′-Fluoro-2′-hydroxy-biphenyl-4-ylmethyl)-N′-(3-hydroxy-isoxazole-5-carbonyl)-hydrazino]-2-hydroxy-propionic acid]
16 | 1.26 to 10 | O=C(NN(Cc1ccc(-c2cc(Cl)ccc2O)cc1)C[C@H](O)C(=O)O)c1cc(O)no1 [Example 8-6, (S)-3-[N-(5′-Chloro-2′-hydroxy-biphenyl-4-ylmethyl)-N′-(3-hydroxy-isoxazole-5-carbonyl)-hydrazino]-2-hydroxy-propionic acid]
17 | 1.26 to 10 | O=C(NN(Cc1ccc(-c2cccc(Cl)c2O)cc1)C[C@@H](O)C(=O)O)c1cc(O)no1 [Example 8-7, (R)-3-[N-(3′-Chloro-2′-hydroxy-biphenyl-4-ylmethyl)-N′-(3-hydroxy-isoxazole-5-carbonyl)-hydrazino]-2-hydroxy-propionic acid]
18 | ≤ 1 | O=C(NN(Cc1ccc(-c2cc(Cl)ccc2F)cc1)C[C@@H](O)C(=O)O)c1cc(O)no1 [Example 8-8, (R)-3-[N-(5′-Chloro-2′-fluoro-biphenyl-4-ylmethyl)-N′-(3-hydroxy-isoxazole-5-carbonyl)-hydrazino]-2-hydroxy-propionic acid]
19 | ≤ 1 | COc1cc(C(=O)NN(Cc2ccc(-c3cc(Cl)ccc3F)cc2)C[C@@H](O)C(=O)O)on1 [Example 8-9, (R)-3-[N-(5′-Chloro-2′-fluoro-biphenyl-4-ylmethyl)-N′-(3-methoxy-isoxazole-5-carbonyl)-hydrazino]-2-hydroxy-propionic acid]
20 | ≤ 1 | O=C(NN(Cc1ccc(-c2cc(Cl)ccc2F)cc1)C[C@@H](O)C(=O)O)c1cc(-c2cccc(F)c2)no1 [Example 8-13, (R)-3-{N-(5′-Chloro-2′-fluoro-biphenyl-4-ylmethyl)-N′-[3-(3-fluoro-phenyl)-isoxazole-5-carbonyl]-hydrazino}-2-hydroxy-propionic acid]
21 | ≤ 1 | CCc1cc(C(=O)NN(Cc2ccc(-c3cc(Cl)ccc3F)cc2)C[C@@H](O)C(=O)O)on1 [Example 8-14, (R)-3-[N-(5′-Chloro-2′-fluoro-biphenyl-4-ylmethyl)-N′-(3-ethyl-isoxazole-5-carbonyl)-hydrazino]-2-hydroxy-propionic acid]
22 | ≤ 1 | COc1ccccc1-c1cc(C(=O)NN(Cc2ccc(-c3cc(Cl)ccc3F)cc2)C[C@@H](O)C(=O)O)on1 [Example 8-15, (R)-3-{N-(5′-Chloro-2′-fluoro-biphenyl-4-ylmethyl)-N′-[3-(2-methoxy-phenyl)-isoxazole-5-carbonyl]-hydrazino}-2-hydroxy-propionic acid]
23 | ≤ 1 | O=C(NN(Cc1ccc(-c2cc(Cl)ccc2F)cc1)C[C@@H](O)C(=O)O)c1cc(-c2cccc(Cl)c2)no1 [Example 8-16, (R)-3-{N-(5′-Chloro-2′-fluoro-biphenyl-4-ylmethyl)-N′-[3-(3-chloro-phenyl)-isoxazole-5-carbonyl]-hydrazino}-2-hydroxy-propionic acid]
24 | ≤ 1 | O=C(NN(Cc1ccc(-c2cc(Cl)ccc2F)cc1)C[C@@H](O)C(=O)O)c1cc(-c2ccccc2Cl)no1 [Example 8-17, (R)-3-{N-(5′-Chloro-2′-fluoro-biphenyl-4-ylmethyl)-N′-[3-(2-chloro-phenyl)-isoxazole-5-carbonyl]-hydrazino}-2-hydroxy-propionic acid]
25 | ≤ 1 | O=C(NN(Cc1ccc(-c2cc(Cl)ccc2F)cc1)C[C@@H](O)C(=O)O)c1cc(-c2ccccc2F)no1 [Example 8-18, (R)-3-{N-(5′-Chloro-2′-fluoro-biphenyl-4-ylmethyl)-N′-[3-(2-fluoro-phenyl)-isoxazole-5-carbonyl]-hydrazino}-2-hydroxy-propionic acid]
26 | 1.26 to 10 | O=C(NN(Cc1ccc(-c2cccc(Cl)c2F)cc1)C[C@@H](O)C(=O)O)c1cc(O)no1 [Example 8-21, (R)-3-[N-(3′-Chloro-2′-fluoro-biphenyl-4-ylmethyl)-N′-(3-hydroxy-isoxazole-5-carbonyl)-hydrazino]-2-hydroxy-propionic acid]
27 | ≤ 1 | O=C(NN(Cc1ccc(-c2cc(Cl)ccc2Cl)cc1)C[C@H](O)C(=O)O)c1cc(O)no1 [Example 8-22, (S)-3-[N-(2′,5′-Dichloro-biphenyl-4-ylmethyl)-N′-(3-hydroxy-isoxazole-5-carbonyl)-hydrazino]-2-hydroxy-propionic acid]
28 | 1.26 to 10 | Cc1cc(Cl)cc(-c2ccc(CN(C[C@H](O)C(=O)O)NC(=O)c3cc(O)no3)cc2)c1F [Example 8-23, (S)-3-[N-(5′-Chloro-2′-fluoro-3′-methyl-biphenyl-4-ylmethyl)-N′-(3-hydroxy-isoxazole-5-carbonyl)-hydrazino]-2-hydroxy-propionic acid]
29 | 1.26 to 10 | O=C(NN(Cc1ccc(-c2cc(F)cc(Cl)c2)cc1)C[C@H](O)C(=O)O)c1cc(O)no1 [Example 8-24, (S)-3-[N-(5′-Chloro-3′-fluoro-biphenyl-4-ylmethyl)-N′-(3-hydroxy-isoxazole-5-carbonyl)-hydrazino]-2-hydroxy-propionic acid]
30 | ≤ 1 | O=C(NN(Cc1ccc(-c2cc(Cl)cc(Cl)c2)cc1)C[C@@H](O)C(=O)O)c1cc(O)no1 [Example 8-25, (R)-3-[N-(3′,5′-Dichloro-biphenyl-4-ylmethyl)-N′-(3-hydroxy-isoxazole-5-carbonyl)-hydrazino]-2-hydroxy-propionic acid]
